Results taken from publication PMC12682859, “Interconnected roles of mitochondrial carrier proteins ANT, PiT, and UCPs in proton transport” (Frontiers in Molecular Biosciences, 2025).

How the values were obtained:
[1] = target: T1, UCP4:ANT1 heterotetramer (1:1) (Homo sapiens; Bos taurus, UniProt O95847+P02722); assay: SPQ fluorescence proton efflux in proteoliposomes; type: biochemical; conditions: read-out: % inhibition at 5 uM
T1 construct: gene SLC25A27; co-reconstituted 1:1 in liposomes from purified N-terminally His6-tagged monomers (bovine ANT1, human UCP4); heterotetramer
T1 sequence (O95847 1-323): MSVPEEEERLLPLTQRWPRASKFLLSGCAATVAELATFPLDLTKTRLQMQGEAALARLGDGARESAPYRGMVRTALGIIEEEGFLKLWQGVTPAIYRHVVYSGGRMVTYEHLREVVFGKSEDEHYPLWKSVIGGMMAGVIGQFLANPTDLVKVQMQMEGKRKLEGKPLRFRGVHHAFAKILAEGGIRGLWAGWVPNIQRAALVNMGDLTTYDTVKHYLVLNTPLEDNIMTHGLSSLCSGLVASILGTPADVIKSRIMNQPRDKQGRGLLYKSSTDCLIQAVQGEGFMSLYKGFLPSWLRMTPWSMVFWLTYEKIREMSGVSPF
T1 sequence (P02722 2-298): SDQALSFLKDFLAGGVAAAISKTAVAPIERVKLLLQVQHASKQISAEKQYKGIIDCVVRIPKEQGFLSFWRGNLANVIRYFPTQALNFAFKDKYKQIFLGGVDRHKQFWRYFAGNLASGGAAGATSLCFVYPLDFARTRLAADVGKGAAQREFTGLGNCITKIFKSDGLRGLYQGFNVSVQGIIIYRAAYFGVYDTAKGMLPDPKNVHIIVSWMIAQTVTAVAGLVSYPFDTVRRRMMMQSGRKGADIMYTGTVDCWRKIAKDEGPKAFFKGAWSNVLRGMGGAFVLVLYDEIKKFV

[2] = target: T2, UCP2 (Homo sapiens, UniProt P55851); assay: biochemical; set-up: SPQ fluorescence quenching assay of proton transport by carriers reconstituted in EYPC liposomes, palmitic acid activated; conditions: EYPC liposomes + 2.5% cardiolipin, 100 uM palmitic acid
T2 construct: full length, N-terminal His6 tag kept, pelB leader removed; E. coli membranes; homotetramer in liposomes
T2 sequence (P55851 1-309): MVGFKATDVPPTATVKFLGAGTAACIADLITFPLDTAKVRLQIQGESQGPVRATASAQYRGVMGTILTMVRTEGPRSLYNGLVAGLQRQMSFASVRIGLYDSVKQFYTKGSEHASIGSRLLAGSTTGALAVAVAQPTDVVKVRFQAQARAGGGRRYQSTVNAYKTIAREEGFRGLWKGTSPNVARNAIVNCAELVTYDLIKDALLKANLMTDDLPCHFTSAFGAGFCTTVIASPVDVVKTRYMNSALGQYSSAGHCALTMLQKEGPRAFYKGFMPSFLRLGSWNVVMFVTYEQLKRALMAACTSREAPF
Description: (§1) FIGURE 8 Proton transport and CATR-inhibited proton transport rates of reconstituted UCP2, UCP4, ANT1, co-reconstituted UCP4:ANT1 and UCP2:ANT1 (1:1 stoichiometric ratio) in liposomes made from EYPC containing 2.5% added CL, in the presence of 100 μM palmitic acid (PA). Each experiment included final concentrations of 1 μM total combined protein and 1 mM lipid. Dark bars represent the total proton transport rate in the absence of CATR, shaded Gray bars represent the proton transport rate in the presence of 5 μM CATR (for corresponding numerical values, see Supplementary Table S6). Each bar represents the average transport rate of at least 10 repeats (from at least two independent experiments), and the error bars show the standard deviations. Asterisks (*) indicate a statistically significant difference (p < 0.05) between the total proton efflux and CATR-inhibited efflux within each combination. Note that the proton transport data for UCP4, UCP2, and ANT1 are reproduced from Figure 5. For the 1:1 combination of UCP4 and ANT1 heterotetramers, to further confirm the cooperativity between ANT1 and UCP4 dimers, we examined proton transport in the presence of the known ANT inhibitor CATR. CATR is an irreversible substrate inhibitor of ANT that blocks its ADP-ATP exchange function ([Klingenberg et al., 1975]). We surmised that irreversible inhibition of the nucleotide exchange activity of ANT and prevention of its alternating transport function could also affect the cooperativity of proton transport activity of ANT1-UCP4 heterotetramers. To verify this hypothesis, we first examined the inhibitory effect of CATR on the proton transport activity of individually reconstituted UCP4 and ANT1. […] A similar inhibitory effect of CATR on the proton transport function of ANT has been reported in a previous study ([Kreiter et al., 2021]). […] Supplementary Material . Figure S1. Schematic of proton transport assay and data analysis. […]

[3] = target: T3, UCP2:ANT1 heterotetramer (1:1) (Homo sapiens; Bos taurus, UniProt P02722+P55851); assay: biochemical; set-up: SPQ fluorescence quenching assay of proton transport by carriers reconstituted in EYPC liposomes, palmitic acid activated; conditions: EYPC liposomes + 2.5% cardiolipin, 100 uM palmitic acid
T3 construct: co-reconstituted 1:1 in liposomes from purified N-terminally His6-tagged monomers (bovine ANT1, human UCP2); heterotetramer
T3 sequence (P55851 1-309): T2 sequence (P55851 1-309)
T3 sequence (P02722 2-298): T1 sequence (P02722 2-298)
Description: as §1

[4] = target: T4, UCP4 (Homo sapiens, UniProt O95847); assay: biochemical; set-up: SPQ fluorescence quenching assay of proton transport by carriers reconstituted in EYPC liposomes, palmitic acid activated; conditions: EYPC liposomes + 2.5% cardiolipin, 100 uM palmitic acid
T4 construct: gene SLC25A27; full length, N-terminal His6 tag kept, pelB leader removed; E. coli membranes; homotetramer in liposomes
T4 sequence (O95847 1-323): T1 sequence (O95847 1-323)
Description: as §1

[5] = target: T5, ANT1 (Bos taurus, UniProt P02722); assay: biochemical; set-up: gene SLC25A4; full length, N-terminal His6 tag kept, pelB leader removed; E. coli membranes; mainly monomer in liposomes; SPQ fluorescence quenching assay of proton transport by carriers reconstituted in EYPC liposomes, palmitic acid activated; conditions: EYPC liposomes + 2.5% cardiolipin, 100 uM palmitic acid
T5 sequence (P02722 2-298): T1 sequence (P02722 2-298)
Description: FIGURE 8 Proton transport and CATR-inhibited proton transport rates of reconstituted UCP2, UCP4, ANT1, co-reconstituted UCP4:ANT1 and UCP2:ANT1 (1:1 stoichiometric ratio) in liposomes made from EYPC containing 2.5% added CL, in the presence of 100 μM palmitic acid (PA). Each experiment included final concentrations of 1 μM total combined protein and 1 mM lipid. Dark bars represent the total proton transport rate in the absence of CATR, shaded Gray bars represent the proton transport rate in the presence of 5 μM CATR (for corresponding numerical values, see Supplementary Table S6). Each bar represents the average transport rate of at least 10 repeats (from at least two independent experiments), and the error bars show the standard deviations. Asterisks (*) indicate a statistically significant difference (p < 0.05) between the total proton efflux and CATR-inhibited efflux within each combination. Note that the proton transport data for UCP4, UCP2, and ANT1 are reproduced from Figure 5. For the 1:1 combination of UCP4 and ANT1 heterotetramers, to further confirm the cooperativity between ANT1 and UCP4 dimers, we examined proton transport in the presence of the known ANT inhibitor CATR. CATR is an irreversible substrate inhibitor of ANT that blocks its ADP-ATP exchange function ([Klingenberg et al., 1975]). […]

Q: For `C=C1[C@@H]2CC[C@H]3[C@]4(C)C[C@H](O[C@@H]5O[C@H](CO)[C@@H](OS(=O)(=O)O)[C@H](OS(=O)(=O)O)[C@H]5OC(=O)CC(C)C)CC(C(=O)O)(C(=O)O)[C@H]4CC[C@]3(C2)[C@H]1O` [CATR, carboxyatractyloside], which inhibition at 5 µM [1] is on record?
A: Its inhibition at 5 µM is roughly 71%.

Q: And the inhibition at 5 µM [2]?
A: The inhibition at 5 µM was 1.7%.

Q: And the inhibition at 5 µM [3]?
A: Its inhibition at 5 µM is 73.6%.

Q: And the inhibition at 5 µM [4]?
A: Its inhibition at 5 µM is 2.7%.

Q: What about the inhibition at 5 µM [5] of the same molecule?
A: Its inhibition at 5 µM is 70.1%.
